From patent US11725010B2, “Polyheterocyclic compounds as METTL3 inhibitors” (Storm Therapeutics Limited, priority 2019, dated 2023) come the findings set out here.

The pIC50 is the negative decadic logarithm of the IC50, by convention in mol/L.

One assay concerns KASUMI-1 cells. Put plainly: Kasumi cell assay (CellTiter-Glo cell growth). The format is cell-based. The conditions noted are these: Homo sapiens, Kasumi 1; treated for 120 hours, CellTiter-Glo luminescence; read-out: KASUMI1 cells IC50. The method, then:
Upon treatment, Kasumil cells were incubated for 10 min at RT with the CellTiter-Glo reagent (G7571, Promega). Measurement of the luminescence signal was performed on a microplate reader (Ensight, PerkinElmer).
In general terms: In ATP-based viability assays light output follows the ATP content of the culture.

Another assay deals with Caov-3 cells. Put plainly: Caov3 CTG proliferation assay. The format is cell-based. The settings on record: Homo sapiens, Caov-3; treated for 120 hours, CellTiter-Glo luminescence; read-out: Caov3 cells IC50. Here is the method: CTG Assay (Caov3 Cell Line)
Upon treatment, Coav-3 cells were incubated for 10 min at RT with the CellTiter-Glo reagent (G7571, Promega). Measurement of the luminescence signal was performed on a microplate reader (Ensight, PerkinElmer).
Caov3 CTG Assay—Proliferation Assay

The target in a further assay is METTL3/14 (Homo sapiens (Human), UniProt Q86U44).
METTL3/14, sequence (Q86U44 whole entry): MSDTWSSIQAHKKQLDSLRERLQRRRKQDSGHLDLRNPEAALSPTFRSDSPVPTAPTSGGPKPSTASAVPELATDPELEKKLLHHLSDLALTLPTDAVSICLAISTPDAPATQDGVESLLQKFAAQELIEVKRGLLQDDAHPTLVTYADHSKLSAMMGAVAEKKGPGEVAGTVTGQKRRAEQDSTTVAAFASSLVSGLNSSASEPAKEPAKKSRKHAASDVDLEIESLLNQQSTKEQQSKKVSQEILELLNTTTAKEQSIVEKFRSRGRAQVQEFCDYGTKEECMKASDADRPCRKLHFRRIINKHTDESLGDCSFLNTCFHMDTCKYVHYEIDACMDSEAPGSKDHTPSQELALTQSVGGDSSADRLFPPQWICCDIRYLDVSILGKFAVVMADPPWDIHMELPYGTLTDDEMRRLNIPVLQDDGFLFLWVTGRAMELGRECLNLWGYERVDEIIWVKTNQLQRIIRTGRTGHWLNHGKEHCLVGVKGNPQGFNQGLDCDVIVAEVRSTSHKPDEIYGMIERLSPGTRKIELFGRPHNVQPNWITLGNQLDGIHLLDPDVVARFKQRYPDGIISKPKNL
METTL3/14, sequence (Q9HCE5 whole entry partner): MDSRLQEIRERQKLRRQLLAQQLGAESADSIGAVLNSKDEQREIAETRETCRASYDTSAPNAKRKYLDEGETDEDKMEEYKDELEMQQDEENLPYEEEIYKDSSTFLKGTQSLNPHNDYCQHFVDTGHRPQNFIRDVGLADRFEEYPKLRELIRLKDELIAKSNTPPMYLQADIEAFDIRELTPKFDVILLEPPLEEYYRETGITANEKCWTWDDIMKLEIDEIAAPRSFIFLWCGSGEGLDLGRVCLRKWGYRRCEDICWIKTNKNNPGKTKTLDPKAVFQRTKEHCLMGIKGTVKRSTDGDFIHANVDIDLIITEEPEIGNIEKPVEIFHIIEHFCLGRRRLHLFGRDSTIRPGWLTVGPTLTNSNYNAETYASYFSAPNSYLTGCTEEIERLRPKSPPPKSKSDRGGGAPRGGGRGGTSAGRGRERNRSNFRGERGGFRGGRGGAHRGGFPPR

Structures are written as SMILES. pIC50: −log10 of the molar value.

For `O=C(NCc1ccc2cc(CN3CC4(C3)CC(F)(F)C4)[nH]c2c1)c1cc(=O)n2ccccc2n1` [Compound 94, N-{[2-({6,6-difluoro-2-azaspiro[3.3]heptanean-2-yl}methyl)-1H-indol-6-yl]methyl}-4-oxo-4H-pyrido[1,2-a]pyrimidine-2-carboxamide], the pIC50 was 5.65 in the assay on KASUMI-1 cells, 6.17 with Caov-3 cells and 8.21 against METTL3/14.
The matching figures for `O=C(NCc1ccc2cc(CN3CC(C4CCC4)C3)[nH]c2c1)c1cc(=O)n2ccccc2n1` [Compound 95, N-({2-[(3-cyclobutylazetidin-1-yl)methyl]-1H-indol-6-yl}methyl)-4-oxo-4H-pyrido[1,2-a]pyrimidine-2-carboxamide]: 5.50, 6.02 and 8.21.
Turning to `CCC1(CC)CN(Cc2cc3ccc(CNC(=O)c4cc(=O)n5ccccc5n4)cc3[nH]2)C1` [Compound 102, N-({2-[(3,3-diethylazetidin-1-yl)methyl]-1H-indol-6-yl}methyl)-4-oxo-4H-pyrido[1,2-a]pyrimidine-2-carboxamide], the pIC50 in the assay with KASUMI-1 cells is 6.28; in the assay with Caov-3 cells it was 6.64; against METTL3/14 it was 8.21.
As for `O=C(NCc1ccc2cc(CN3CCC4(CCC4)C3)[nH]c2c1)c1cc(=O)n2ccccc2n1` [Compound 104, N-{[2-({6-azaspiro[3.4]octan-6-yl}methyl)-1H-indol-6-yl]methyl}-4-oxo-4H-pyrido[1,2-a]pyrimidine-2-carboxamide], the pIC50 with KASUMI-1 cells is 6.18; in the assay with Caov-3 cells, 6.62; against METTL3/14, 8.21.
Turning to `O=C(NCc1ccc2cc(CN3CC4CCCC4C3)[nH]c2c1)c1cc(=O)n2ccccc2n1` (stereo not drawn) [Compound 106, N-{[2-({octahydrocyclopenta[c]pyrrol-2-yl}methyl)-1H-indol-6-yl]methyl}-4-oxo-4H-pyrido[1,2-a]pyrimidine-2-carboxamide], the negative logarithm of the IC50 (pIC50) in the assay on KASUMI-1 cells is 5.74; in the assay with Caov-3 cells, 6.04; against METTL3/14 it was 8.21.
Regarding `O=C(NCc1ccc2cc(CNCC3CC34CC4)[nH]c2c1)c1cc(=O)n2ccccc2n1` (stereo not drawn) [Compound 109, 4-oxo-N-[(2-{[({spiro[2.2]pentan-1-yl}methyl)amino]methyl}-1H-indol-6-yl)methyl]-4H-pyrido[1,2-a]pyrimidine-2-carboxamide], the pIC50 was 5.83 in the assay on KASUMI-1 cells, 6.22 in the assay with Caov-3 cells and 8.21 against METTL3/14.
On to `O=C(NCc1ccc2cc(CNC3CC34CCC4)[nH]c2c1)c1cc(=O)n2ccccc2n1` (stereo not drawn) [Compound 110, 4-oxo-N-({2-[({spiro[2.3]hexan-1-yl}amino)methyl]-1H-indol-6-yl}methyl)-4H-pyrido[1,2-a]pyrimidine-2-carboxamide], for which the pIC50 in the assay on KASUMI-1 cells was 5.94; in the assay on Caov-3 cells it was 6.39; against METTL3/14, 8.21.
Regarding `O=C(NCc1ccc2cc(CN3CCC4(CCCC4)C3)[nH]c2c1)c1cc(=O)n2ccccc2n1` [Compound 113, N-{[2-({2-azaspiro[4.4]nonan-2-yl}methyl)-1H-indol-6-yl]methyl}-4-oxo-4H-pyrido[1,2-a]pyrimidine-2-carboxamide], the pIC50 with KASUMI-1 cells is 5.78; in the assay with Caov-3 cells, 6.24; against METTL3/14 it was 8.21.
The matching figures for `CC1(CNCc2cc3ccc(CNC(=O)c4cc(=O)n5ccccc5n4)cc3[nH]2)CCC1` [Compound 117, N-{[2-({[(1-methylcyclobutyl)methyl]amino}methyl)-1H-indol-6-yl]methyl}-4-oxo-4H-pyrido[1,2-a]pyrimidine-2-carboxamide]: 5.76, 6.30 and 8.21.
The matching figures for `CC(NCc1cc2ccc(CNC(=O)c3cc(=O)n4ccccc4n3)cc2[nH]1)C12CC(F)(C1)C2` (stereo not drawn) [Compound 120, N-[(2-{[(1-{3-fluorobicyclo[1.1.1]pentan-1-yl}ethyl)amino]methyl}-1H-indol-6-yl)methyl]-4-oxo-4H-pyrido[1,2-a]pyrimidine-2-carboxamide]: 6.35, 6.69 and 8.21.
The matching figures for `c1cc(-c2cn(Cc3ccc4cc(CN5CC6(CCC6)C5)[nH]c4c3)nn2)c2cn[nH]c2c1` [Compound 122, 4-(1-{[2-({2-azaspiro[3.3]heptanean-2-yl}methyl)-1H-indol-6-yl]methyl}-1H-1,2,3-triazol-4-yl)-1H-indazole]: 5.96, 6.28 and 8.21.
As for `CC12CC(CNCc3cc4cnc(CNC(=O)c5cc(=O)n6ccccc6n5)cc4[nH]3)(C1)C2` [Compound 129, N-[(2-{[({3-methylbicyclo[1.1.1]pentan-1-yl}methyl)amino]methyl}-1H-pyrrolo[3,2-c]pyridin-6-yl)methyl]-4-oxo-4H-pyrido[1,2-a]pyrimidine-2-carboxamide], the pIC50 in the assay on KASUMI-1 cells was 5.54; with Caov-3 cells, 6.16; on METTL3/14, 8.21.
`O=C(NCc1cc2[nH]c(CNCC3CCC3)cc2cn1)c1cc(=O)n2ccccc2n1` [Compound 130, N-[(2-{[(cyclobutylmethyl)amino]methyl}-1H-pyrrolo[3,2-c]pyridin-6-yl)methyl]-4-oxo-4H-pyrido[1,2-a]pyrimidine-2-carboxamide]: the pIC50 with KASUMI-1 cells was 5.50; with Caov-3 cells it was 6.34; against METTL3/14 it was 8.21.
The corresponding values for `O=C(NCc1cc2[nH]c(CNCC34CC(C3)C4)cc2cn1)c1cc(=O)n2ccccc2n1` [Compound 131, N-[(2-{[({bicyclo[1.1.1]pentan-1-yl}methyl)amino]methyl}-1H-pyrrolo[3,2-c]pyridin-6-yl)methyl]-4-oxo-4H-pyrido[1,2-a]pyrimidine-2-carboxamide] are 5.94, 6.62 and 8.21.
The corresponding values for `O=C(NCc1cc2[nH]c(CNCC34CC(F)(C3)C4)cc2cn1)c1cc(=O)n2ccccc2n1` [Compound 132, N-[(2-{[({3-fluorobicyclo[1.1.1]pentan-1-yl}methyl)amino]methyl}-1H-pyrrolo[3,2-c]pyridin-6-yl)methyl]-4-oxo-4H-pyrido[1,2-a]pyrimidine-2-carboxamide] are 6.11, 6.57 and 8.21.
Regarding `O=C(NCc1cc2[nH]c(CN3CCC4(CCC4)C3)cc2cn1)c1cc(=O)n2ccccc2n1` [Compound 145, N-((2-((6-azaspiro[3.4]octan-6-yl)methyl)-1H-pyrrolo[3,2-c]pyridin-6-yl)methyl)-4-oxo-4H-pyrido[1,2-a]pyrimidine-2-carboxamide], the pIC50 with KASUMI-1 cells is 6.14; in the assay with Caov-3 cells, 6.70; against METTL3/14, greater than 8.21.
The matching figures for `O=C(NCc1ccc2cc(CNCC3CCC3)[nH]c2c1)c1cc(=O)n2ccccc2n1` [Example 2, N-[(2-{[(cyclobutylmethyl)amino]methyl}-1H-indol-6-yl)methyl]-4-oxo-4H-pyrido[1,2-a]pyrimidine-2-carboxamide]: 6.23, 6.63 and 8.21.
`O=C(NCc1ccc2c(F)c(CNCC3CCC3)[nH]c2c1)c1cc(=O)n2ccccc2n1` [Example 45, N-[(2-{[(cyclobutylmethyl)amino]methyl}-3-fluoro-1H-indol-6-yl)methyl]-4-oxo-4H-pyrido[1,2-a]pyrimidine-2-carboxamide]: the pIC50 in the assay on KASUMI-1 cells was 6.12; in the assay on Caov-3 cells, 6.24; against METTL3/14, 8.21.
